Assay [1] concerns histone H3K23 acetylation in U-2 OS cells. The assay is described as follows: Histone H3 lysine 23 acetylation assay in U-2 OS cells (high content analysis). The class given is cell-based. The following applies: Homo sapiens, U2OS, 24 hrs exposure, H3K23ac level. Summed up:
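U-2 OS cells seeded overnight, then exposed 24 h to a 9-point compound dilution series; 0.1% DMSO medium as blank. Fixed, permeabilised, stained with anti-H3K23ac plus Alexa Fluor 647 secondary and DAPI; nuclear H3K23ac intensity read by high-content imaging. Inhibition = mean per-well cell intensity relative to on-plate blanks.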

The target of assay [2] is Recombinant human KAT6A protein (497-780) (Homo sapiens (Human), UniProt Q92794). The assay is described as follows: KAT6A biochemical TR-FRET assay. As to conditions: histone H4 peptide 2000 nM, AcCoA 300 nM, enzyme 5 nM. For orientation: TR-FRET usually uses a lanthanide donor and a delayed reading to cut background.
Sequence of Recombinant human KAT6A protein (497-780) (Q92794 497-780): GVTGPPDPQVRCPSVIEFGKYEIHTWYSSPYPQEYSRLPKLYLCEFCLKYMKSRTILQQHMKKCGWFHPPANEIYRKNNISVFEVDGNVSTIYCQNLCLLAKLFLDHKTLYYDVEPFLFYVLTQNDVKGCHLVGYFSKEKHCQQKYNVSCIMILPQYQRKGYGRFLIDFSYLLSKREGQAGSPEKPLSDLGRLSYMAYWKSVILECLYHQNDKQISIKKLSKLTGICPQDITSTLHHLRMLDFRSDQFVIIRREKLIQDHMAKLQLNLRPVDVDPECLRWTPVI
Assay [3] addresses Recombinant human KAT6B protein (657-1069) (Homo sapiens (Human), UniProt Q8WYB5). Nature of the assay: KAT6B biochemical TR-FRET assay. As to conditions: histone H4 peptide 1000 nM, AcCoA 100 nM, enzyme 5 nM.

This passage reports IC50 results from patent US20250304535A1, “KAT6 Inhibitors” (BeiGene Switzerland GmbH, priority 2024, published 2025).

Bounds are passed on as bounds.

One may read the IC50 as the point on the concentration scale where inhibition reaches its midpoint.

Sequence of Recombinant human KAT6B protein (657-1069) (Q8WYB5 657-1069): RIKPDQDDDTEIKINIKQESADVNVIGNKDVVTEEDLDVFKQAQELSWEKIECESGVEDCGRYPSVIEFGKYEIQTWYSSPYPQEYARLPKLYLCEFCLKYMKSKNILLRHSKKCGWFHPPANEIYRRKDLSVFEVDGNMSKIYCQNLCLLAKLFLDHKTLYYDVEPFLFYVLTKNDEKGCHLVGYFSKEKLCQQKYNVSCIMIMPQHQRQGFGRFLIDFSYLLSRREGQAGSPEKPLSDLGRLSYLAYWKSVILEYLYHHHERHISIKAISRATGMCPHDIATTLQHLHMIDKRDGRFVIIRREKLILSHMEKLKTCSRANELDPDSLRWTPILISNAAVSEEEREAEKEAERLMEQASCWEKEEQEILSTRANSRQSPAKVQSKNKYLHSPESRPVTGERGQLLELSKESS

Consider `COc1ccc(C(C)(C)C)nc1S(=O)(=O)NC(=O)c1ccc(Cn2cccn2)c(C(F)(F)F)c1` [Example C25, 4-((1H-pyrazol-1-yl)methyl)-N-((6-(tert-butyl)-3-methoxypyridin-2-yl)sulfonyl)-3-(trifluoromethyl)benzamide], for which the IC50 is at most 10 nM in assay [1], at most 5 nM in assay [2] and at most 5 nM in assay [3].

As to `COc1cc(C(=O)NS(=O)(=O)c2nc(C(C)(C)C)ccc2OC)ccc1Cc1ccccn1` [Example C32, N-((6-(tert-butyl)-3-methoxypyridin-2-yl)sulfonyl)-3-methoxy-4-(pyridin-2-ylmethyl)benzamide], the IC50 in assay [1] is at most 10 nM; in assay [2], at most 5 nM; in assay [3], at most 5 nM.
